“Also recorded” adds a separate entry of the source.

For experiment [1], the system named is AsPC1 cells. The experiment can be described thus: Acute ATP synthesis rescue by exogenous carbon sources in AsPC1 cells treated with devimistat and GPi. The note with it: 60 μM devimistat, 50 μM oleic acid; for inhibition of oleic acid (OA)-driven acute ATP synthesis / OA rescue: AsPC1, 50 μM GPi. The format is cell-based, human.
For experiment [2], the system named is AsPC1 cells. The experiment can be described thus: Devimistat-induced cell death (ATP after recovery) in AsPC1 cells. It is filed as cell-based, human. The note with it: AsPC1, nutrient-free CBS2, treatment followed by recovery in serum-free RPMI. The protocol: Cells were plated at 80% confluency in complete RPMI in black, clear bottom 96-well plates or 35-mm dishes for ATP, protein and glycogen analysis, or glass coverslips for fluorescence visualization. […] Prior to drug treatment, cells were incubated in a nutrient-free carbonate buffered salt solution (CBS2) for 3 hours. Drug treatments were then carried out in CBS2 with addition of nutrient sources and/or chemical agents as described in the Examples and Figures.
(§1) LOGIC: High throughput, plate reader assays for cell death essentially always ultimately depend on metabolic activity of cells to identify viability, directly or indirectly. Thus, strong inhibition of metabolic activity by anti-metabolism agents like those described herein can confound cell death analysis by such assays. […] The inventors thus used a recovery-based assay wherein cells are treated with anti-metabolic agents under conditions where mitochondrial metabolism is (or becomes) limiting on viability. After experimental treatment, drug and media are removed and cells are allowed to recover in serum-free RPMI. RPMI provides high levels of glucose in support of glycolytic ATP generation (independently of mitochondrial function), allowing viable cells to recover ATP levels that are ultimately measured in the plate assay to score cell viability.
Survival is assessed by conventional luminescence measurement of ATP levels after this recovery.
TECHNICAL DETAILS: Immediately after drug treatments, acute ATP levels of cells in black, clear bottom 96-well plates were measured using the CellTiter-Glo® Luminescent Cell Viability Assay (catalog #G775B) following Promega (Madison, WI) protocols. […] After this recovery period ATP levels were measured using the CellTiter-Glo® Luminescent Cell Viability Assay as described above.
Survival is assessed by conventional luminescence measurement of ATP levels after this recovery. See the Methods section above for a detailed description of this assay and its validation.

A further experiment deals with AsPC1 xenograft. The experiment can be described thus: AsPC1 xenograft tumor growth, crizotinib and devimistat. The format is in vivo, mice. The note with it: crizotinib oral gavage, devimistat IP, MWF. The protocol:
Female, 6-week-old, CD1-nu/nu mice were inoculated with 2.5 million PANC-1 cell in 100 μL of HBSS or 5 million AsPC-1 cells in HBSS. Treatment commenced when tumors reached 100 mm^3 and lasted for the times indicated in the Examples and Figures. Mice were treated three times per week (MWF) with vehicle or drugs as indicated in the Examples and Figures. Tumors were measured once per week. […] Use of Matrigel for tumor inoculation was avoided in TGI experiments with this class of agents.
D. Assessment of CRZ and/or devimistat effects on AsPC1 xenograft tumor growth in vivo. Tumors were inoculated subcutaneously on the flank and drug combinations indicated in FIG. 8C were administered intraperitoneally (devimistat) or by oral gavage (CRZ) three days per week (MWF). Tumor size was estimated by caliper assessment of tumor radius and calculation of volume (see Methods).

A further experiment has as its system PANC1 cells. Nature of the experiment: Devimistat-induced cell death (ATP after recovery) in PANC1 cells. The format is cell-based, human. The following applies: PANC1, nutrient-free CBS2, treatment followed by recovery in serum-free RPMI. As to the method: Cells were plated at 80% confluency in complete RPMI in black, clear bottom 96-well plates or 35-mm dishes for ATP, protein and glycogen analysis, or glass coverslips for fluorescence visualization. To create low nutritional conditions, cells were seeded in complete media, after 24 hours cells were transferred to serum free RPMI for 18-24 hours. Prior to drug treatment, cells were incubated in a nutrient-free carbonate buffered salt solution (CBS2) for 3 hours. Drug treatments were then carried out in CBS2 with addition of nutrient sources and/or chemical agents as described in the Examples and Figures.
as §1, with “cell viability. Under these conditions, cells that are committed to execution of cell death by the experimental treatment score as dead and cells that have not committed to cell death recover ATP levels and score as viable.” for “cell viability.”
Specifically, after exposure to the treatments indicated, cells are allowed to recover ([…]) in RPMI without serum. Survival is assessed by conventional luminescence measurement of ATP levels after this recovery.
TECHNICAL DETAILS: Immediately after drug treatments, acute ATP levels of cells in black, clear bottom 96-well plates were measured using the CellTiter-Glo® Luminescent Cell Viability Assay (catalog #G775B) following Promega (Madison, WI) protocols. To assess cell viability, after drug treatments, drug/agent-containing medium was replaced with serum-free RPMI and cells were incubated for an additional 17-24 hours to allow recovery of viable cells, without additional cell division. After this recovery period ATP levels were measured using the CellTiter-Glo® Luminescent Cell Viability Assay as described above.
A. Exogenous glucose protects from devimistat-induced cell death. Four different cell lines were exposed for 15 hours (PANC1, AsPC1, H460) or 8 hours (PC3) to the indicated range of devimistat doses in the absence of exogenous nutrients (in carbonate buffered balanced salts solution, CBS2) after 3 hours of preincubation in CBS2 (for cell adaptation and to equilibrate soluble nutrient pools). Cells were exposed to the treatments indicated, followed by recovery (24 hours) in RPMI without serum (providing nutrient support for viable cell recovery, without serum factors for cell division). Survival is assessed by conventional luminescence measurement of ATP levels after this recovery. […] The relatively large quantitative differences in devimistat sensitivity between cell lines under exogenous nutrient deprivation are characteristic of each line (see examples below), with small experiment-to-experiment variation. […]

Experiment [3] concerns AsPC1 cells. The experiment can be described thus: Glycogen content in AsPC1 cells. It is filed as cell-based, human. The note with it: AsPC1, CBS2, 3 hours. The protocol:
Glycogen was quantified using the Glycogen Assay Kit II (colorimetric) from AbCam (ab169558) according to manufacturer's instructions. Briefly, approximately 2×10^6 cells were washed with ice-cold PBS and collected via scraping in 300 μL ice-cold ddH2O. Cells were immediately sonicated on ice for 5× […] pulses with a probe sonicator (Misonix Inc, model XL2000), then heated to 80° C. for 10 min. Samples were stored O/N at −20° C., then thawed, centrifuged at 12,000×g for 10 min and the supernatants collected for glycogen hydrolysis and quantification according to manufacturer's instructions.
C. […] Cells were treated in CBS2 for 3 hours with 30 μM devimistat or mock treated (FIG. 2C, left), or treated for 3 hours with the indicated devimistat doses (FIG. 2C, right).
D. Effects of anti-metabolism agents on glycogen consumption in PANC1 and AsPC1 cells. […] Glycogen content was measured in cell lysates (see Methods, above) and the results are presented in the left and middle graphs in FIG. 3D (note the different vertical scales for PANC1 and AsPC1 plots).

Experiment [4] has as its system H460, PC3 and SW620 cells. Nature of the experiment: Devimistat cell killing with thioridazine in other cell lines. The format is cell-based, human. The following applies: 10 μM devimistat, 21 hours treatment, 22 hours recovery.
For experiment [5], the system named is AsPC1 cells. Nature of the experiment: CO2 release from 14C-oleic acid in AsPC1 cells. The following applies: AsPC1, CBS2, 50 μM GPi, 40 μM oleic acid. It is filed as cell-based, human.

Consider `C[C@@H](Oc1cc(-c2cnn(C3CCNCC3)c2)cnc1N)c1c(Cl)ccc(F)c1Cl` [Crizotinib, (R)-3-[1-(2,6-Dichloro-3-fluorophenyl)ethoxy]-5-[1-(piperidin-4-yl)-1H-pyrazol-4-yl]pyridin-2-amine], for which the “inhibition of oleic acid (OA)-driven acute ATP synthesis / OA rescue” value in the experiment on AsPC1 cells [1] was “robust inhibition”. Further, the OA rescue blockade result in the experiment with AsPC1 cells [1] (acute ATP synthesis, 50 μM GPi) is listed as “Yes”. For the same compound, the “sensitization to devimistat-induced cell death, agent combined with devimistat” value in the experiment with AsPC1 cells [2] is “robustly sensitize”. For the same compound, in the experiment on AsPC1 xenograft, the “sensitization to devimistat tumor cell killing in vivo” value was “sensitizes to devimistat tumor cell killing in vitro and in vivo”.

Consider `CSc1ccc2c(c1)N(CCC1CCCCN1C)c1ccccc1S2` (stereo not shown) [TZ, 2-methylmercapto-10-[2-(N-methyl-2-piperidyl)ethyl] phenothiazine], for which, in the experiment on AsPC1 cells [1], the “inhibition of oleic acid (OA)-driven acute ATP synthesis / OA rescue” value was “strongly inhibited”. Further, the “sensitization to devimistat-induced cell death, agent combined with devimistat” value with AsPC1 cells [2] was “Synergy observed; also recorded: enhances devimistat effects”; in the experiment with PANC1 cells it was “Synergy observed”. The glycogen consumption entry in the experiment with AsPC1 cells [3] is reported as “accelerates glycogen consumption”. Further, the “enhancement of devimistat cell killing” value in experiment [4] is listed as “enhances devimistat cell killing”. Moreover, in the experiment with AsPC1 cells [5], the “oleic acid beta-oxidation (CO2 release from oleate)” value is on record as “block oleic acid beta-oxidation”.
